In patent EP4745137A1 (Gluetacs Therapeutics (Shanghai) Co., Ltd., priority 2023, dated 2025):

How the values were obtained:
[1] = target: T1, human Cereblon WT GST-tagged protein (Homo sapiens, UniProt Q96SW2); test: CRBN-binding affinity by HTRF (CEREBLON BINDING kit); conditions: HTRF inhibitory activity, CEREBLON BINDING kit; read-out: HTRF IC50
T1 construct: purchased CISBIO 64BDCRBNPEH

WEE1 = target: T2, WEE1 (Homo sapiens, UniProt P30291+Q96SW2); test: Western-blot assay of substrate protein degradation in hPBMCs, WEE1; assay type: cell-based; conditions: 24 hours of compound treatment, compounds tested at 50 nM and 500 nM (concentration of the table not stated)
T2 construct: endogenous in cells; host or cells: hPBMCs (Milecell Biotechnologies)
T2 sequence (P30291 whole entry): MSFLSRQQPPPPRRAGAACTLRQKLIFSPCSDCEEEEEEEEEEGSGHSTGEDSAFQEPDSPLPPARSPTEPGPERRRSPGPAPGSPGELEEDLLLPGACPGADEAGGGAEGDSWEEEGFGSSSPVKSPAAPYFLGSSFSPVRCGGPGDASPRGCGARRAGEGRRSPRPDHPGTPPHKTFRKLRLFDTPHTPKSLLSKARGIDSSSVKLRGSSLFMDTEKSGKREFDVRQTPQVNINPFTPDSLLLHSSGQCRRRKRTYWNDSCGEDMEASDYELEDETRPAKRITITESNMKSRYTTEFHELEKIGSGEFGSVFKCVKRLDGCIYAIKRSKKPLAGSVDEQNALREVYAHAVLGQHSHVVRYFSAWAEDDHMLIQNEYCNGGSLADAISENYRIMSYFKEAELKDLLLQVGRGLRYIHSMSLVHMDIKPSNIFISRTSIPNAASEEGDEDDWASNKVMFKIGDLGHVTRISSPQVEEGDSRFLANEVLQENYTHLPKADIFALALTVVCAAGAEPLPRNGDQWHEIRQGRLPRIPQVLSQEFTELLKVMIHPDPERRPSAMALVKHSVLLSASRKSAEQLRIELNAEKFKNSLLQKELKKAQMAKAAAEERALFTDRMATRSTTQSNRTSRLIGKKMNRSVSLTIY
T2 sequence (Q96SW2 whole entry): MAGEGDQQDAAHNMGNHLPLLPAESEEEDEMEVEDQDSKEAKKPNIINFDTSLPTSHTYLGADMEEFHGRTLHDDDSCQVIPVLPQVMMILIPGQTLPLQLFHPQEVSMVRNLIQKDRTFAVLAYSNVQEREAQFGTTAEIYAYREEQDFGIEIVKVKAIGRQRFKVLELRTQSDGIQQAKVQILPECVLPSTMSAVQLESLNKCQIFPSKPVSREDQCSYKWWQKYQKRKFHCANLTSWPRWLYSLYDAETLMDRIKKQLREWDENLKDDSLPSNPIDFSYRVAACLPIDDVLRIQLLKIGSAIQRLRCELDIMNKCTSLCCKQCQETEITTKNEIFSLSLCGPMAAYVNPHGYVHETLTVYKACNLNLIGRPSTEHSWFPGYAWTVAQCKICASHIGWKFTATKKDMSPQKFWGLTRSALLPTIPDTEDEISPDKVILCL
T2 sequence (Q16531 whole entry partner): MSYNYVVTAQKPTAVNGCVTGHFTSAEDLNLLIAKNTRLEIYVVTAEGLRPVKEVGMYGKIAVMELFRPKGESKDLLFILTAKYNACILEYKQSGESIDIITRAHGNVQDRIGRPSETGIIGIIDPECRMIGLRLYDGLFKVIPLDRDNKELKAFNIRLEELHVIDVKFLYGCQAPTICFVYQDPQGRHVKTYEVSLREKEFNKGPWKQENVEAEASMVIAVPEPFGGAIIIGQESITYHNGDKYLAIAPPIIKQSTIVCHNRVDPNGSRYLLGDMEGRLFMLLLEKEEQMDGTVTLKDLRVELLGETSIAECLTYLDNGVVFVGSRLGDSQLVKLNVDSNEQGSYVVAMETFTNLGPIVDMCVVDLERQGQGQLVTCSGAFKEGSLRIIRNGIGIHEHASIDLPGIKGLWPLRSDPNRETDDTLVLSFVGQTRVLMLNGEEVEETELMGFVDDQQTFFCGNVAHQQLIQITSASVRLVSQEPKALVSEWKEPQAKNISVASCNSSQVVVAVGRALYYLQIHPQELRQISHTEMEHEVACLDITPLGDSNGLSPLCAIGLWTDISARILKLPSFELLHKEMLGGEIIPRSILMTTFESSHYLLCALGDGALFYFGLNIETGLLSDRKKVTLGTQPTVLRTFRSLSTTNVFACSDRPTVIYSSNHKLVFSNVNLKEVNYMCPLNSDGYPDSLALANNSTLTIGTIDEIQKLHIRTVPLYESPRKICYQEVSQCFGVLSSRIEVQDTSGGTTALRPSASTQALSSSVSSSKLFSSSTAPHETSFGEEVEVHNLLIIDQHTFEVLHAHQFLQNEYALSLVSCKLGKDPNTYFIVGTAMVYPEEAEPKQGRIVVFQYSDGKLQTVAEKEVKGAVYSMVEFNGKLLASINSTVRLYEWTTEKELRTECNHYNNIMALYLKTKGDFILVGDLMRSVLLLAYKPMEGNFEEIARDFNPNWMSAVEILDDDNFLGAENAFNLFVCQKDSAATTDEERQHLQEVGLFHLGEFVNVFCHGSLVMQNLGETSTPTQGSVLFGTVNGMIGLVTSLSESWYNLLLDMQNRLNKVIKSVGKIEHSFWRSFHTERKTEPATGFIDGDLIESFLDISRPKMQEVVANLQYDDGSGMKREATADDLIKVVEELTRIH

Jurkat = test: Tumor cell proliferation inhibition (CellTiter-Meiluncell Luminescent Cell Viability Assay), Jurkat; conditions: Homo sapiens, 96 h, read-out: inhibitory activity (IC50, nM) against tumor cells proliferation, Jurkat
IKZF2 = target: T3, IKZF2 (Homo sapiens, UniProt Q96SW2+Q9UKS7); test: Western-blot assay of substrate protein degradation in hPBMCs, IKZF2; assay type: cell-based; conditions: 24 hours of compound treatment, compounds tested at 50 nM and 500 nM (concentration of the table not stated)
T3 construct: endogenous in cells; host or cells: hPBMCs (Milecell Biotechnologies)
T3 sequence (Q9UKS7 whole entry): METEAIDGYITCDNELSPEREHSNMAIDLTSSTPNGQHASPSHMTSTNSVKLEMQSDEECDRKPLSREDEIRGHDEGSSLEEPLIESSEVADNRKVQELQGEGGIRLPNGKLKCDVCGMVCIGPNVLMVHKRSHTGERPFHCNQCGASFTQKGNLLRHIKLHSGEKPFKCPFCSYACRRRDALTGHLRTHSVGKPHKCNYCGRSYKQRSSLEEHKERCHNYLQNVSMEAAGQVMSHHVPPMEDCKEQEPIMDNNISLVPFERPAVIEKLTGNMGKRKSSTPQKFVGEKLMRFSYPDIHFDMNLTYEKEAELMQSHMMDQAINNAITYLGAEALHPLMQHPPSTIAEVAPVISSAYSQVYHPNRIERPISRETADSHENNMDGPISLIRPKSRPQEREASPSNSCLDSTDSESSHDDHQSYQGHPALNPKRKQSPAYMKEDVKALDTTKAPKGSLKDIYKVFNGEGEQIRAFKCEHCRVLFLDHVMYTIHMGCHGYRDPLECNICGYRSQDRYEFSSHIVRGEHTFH
T3 sequence (Q96SW2 whole entry): as the sequence (Q96SW2 whole entry) above
T3 sequence (Q16531 whole entry partner): as the sequence (Q16531 whole entry partner) above

MGC803 = test: Tumor cell proliferation inhibition (CellTiter-Meiluncell Luminescent Cell Viability Assay), MGC803; conditions: Homo sapiens, MGC-803, 96 h, read-out: inhibitory activity (IC50, nM) against tumor cells proliferation, MGC803
Procedure: (§1) The tumor cells used herein were cultured in a cell culture medium listed in table 2 at 37°C in an incubator with 5% CO2. Prior to experimentation, all cell lines used were correctly identified by STR profiling, and tested negative for mycoplasma contamination using a mycoplasma detection kit through routine screenings.
On the following day, the test compounds of the present disclosure were subjected to serial dilution. […] Subsequently, 0.5 µL of the test compound dilution was transferred into the 96-well plate containing the cells, with each well containing 100 µL of cell culture medium. […] Into the 96-well plate, the diluted test compounds and corresponding detection reagents were added, resulting in final test compound concentrations of 500 nM and 10 nM, respectively.
(§2) After the cells were treated with the compounds of the present disclosure for a specified period (the treatment durations were shown in Table 3), the cell viability assay reagent was added to the culture medium according to the kit's instructions to determine cell viability. […] All controls were treated using the same procedure as the compounds of the present disclosure. The growth inhibition curves for the compounds of the present disclosure were plotted using Prism GraphPad software, and the IC50 values were calculated therefrom.

IKZF1 = target: T4, IKZF1 (Homo sapiens, UniProt Q13422+Q96SW2); test: Western-blot assay of substrate protein degradation in hPBMCs, IKZF1; assay type: cell-based; conditions: 24 hours of compound treatment, compounds tested at 50 nM and 500 nM (concentration of the table not stated)
T4 construct: endogenous in cells; host or cells: hPBMCs (Milecell Biotechnologies)
T4 sequence (Q13422 whole entry): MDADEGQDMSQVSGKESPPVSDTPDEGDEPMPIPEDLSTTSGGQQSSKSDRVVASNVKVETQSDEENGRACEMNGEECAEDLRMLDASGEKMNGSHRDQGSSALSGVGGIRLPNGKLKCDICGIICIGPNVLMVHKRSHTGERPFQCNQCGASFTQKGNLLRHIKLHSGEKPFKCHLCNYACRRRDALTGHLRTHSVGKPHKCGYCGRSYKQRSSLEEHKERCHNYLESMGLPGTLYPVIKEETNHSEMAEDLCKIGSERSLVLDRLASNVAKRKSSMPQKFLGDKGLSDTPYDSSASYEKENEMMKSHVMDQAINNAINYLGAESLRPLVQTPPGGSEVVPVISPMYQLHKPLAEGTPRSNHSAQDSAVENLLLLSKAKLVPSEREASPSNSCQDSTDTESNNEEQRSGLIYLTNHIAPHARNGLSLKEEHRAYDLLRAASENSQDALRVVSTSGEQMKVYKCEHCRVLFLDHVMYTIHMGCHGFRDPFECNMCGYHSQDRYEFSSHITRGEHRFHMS
T4 sequence (Q96SW2 whole entry): as the sequence (Q96SW2 whole entry) above
T4 sequence (Q16531 whole entry partner): as the sequence (Q16531 whole entry partner) above

GSPT1 = target: T5, GSPT1 (Homo sapiens, UniProt P15170+Q96SW2); test: Western-blot assay of substrate protein degradation in hPBMCs, GSPT1; assay type: cell-based; conditions: 24 hours of compound treatment, compounds tested at 50 nM and 500 nM (concentration of the table not stated)
T5 construct: endogenous in cells; host or cells: hPBMCs (Milecell Biotechnologies)
T5 sequence (P15170 whole entry): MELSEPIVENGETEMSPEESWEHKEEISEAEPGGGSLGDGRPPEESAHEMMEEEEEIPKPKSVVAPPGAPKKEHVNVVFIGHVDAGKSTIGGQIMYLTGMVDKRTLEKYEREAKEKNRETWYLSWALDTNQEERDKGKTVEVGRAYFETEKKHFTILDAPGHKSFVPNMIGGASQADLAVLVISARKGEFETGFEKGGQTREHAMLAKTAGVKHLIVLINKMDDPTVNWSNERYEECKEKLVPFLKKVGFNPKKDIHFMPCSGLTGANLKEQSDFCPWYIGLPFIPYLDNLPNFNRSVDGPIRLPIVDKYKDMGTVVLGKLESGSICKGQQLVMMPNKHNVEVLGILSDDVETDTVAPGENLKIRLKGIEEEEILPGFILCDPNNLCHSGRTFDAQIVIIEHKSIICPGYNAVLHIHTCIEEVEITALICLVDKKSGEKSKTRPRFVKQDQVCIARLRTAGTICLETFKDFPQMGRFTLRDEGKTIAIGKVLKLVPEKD
T5 sequence (Q96SW2 whole entry): as the sequence (Q96SW2 whole entry) above
T5 sequence (Q16531 whole entry partner): as the sequence (Q16531 whole entry partner) above

Vcap = test: Tumor cell proliferation inhibition (CellTiter-Meiluncell Luminescent Cell Viability Assay), Vcap; conditions: Homo sapiens, 96 h, read-out: inhibitory activity (IC50, nM) against tumor cells proliferation, Vcap
IKZF3 = target: T6, IKZF3 (Homo sapiens, UniProt Q96SW2+Q9UKT9); test: Western-blot assay of substrate protein degradation in hPBMCs, IKZF3; assay type: cell-based; conditions: 24 hours of compound treatment, compounds tested at 50 nM and 500 nM (concentration of the table not stated)
T6 construct: endogenous in cells; host or cells: hPBMCs (Milecell Biotechnologies)

SW620 = test: Tumor cell proliferation inhibition (CellTiter-Meiluncell Luminescent Cell Viability Assay), SW620; conditions: Homo sapiens, SW-620, 96 h, read-out: inhibitory activity (IC50, nM) against tumor cells proliferation, SW620
CAL-62 = test: Tumor cell proliferation inhibition (CellTiter-Meiluncell Luminescent Cell Viability Assay), CAL-62; conditions: Homo sapiens, CAL-62, 96 h, read-out: inhibitory activity (IC50, nM) against tumor cells proliferation, CAL-62
CK1α = target: T7, CK1α (Homo sapiens, UniProt P48729+Q96SW2); test: Western-blot assay of substrate protein degradation in hPBMCs, CK1α; assay type: cell-based; conditions: 24 hours of compound treatment, compounds tested at 50 nM and 500 nM (concentration of the table not stated)
T7 construct: endogenous in cells; host or cells: hPBMCs (Milecell Biotechnologies)
T7 sequence (P48729 whole entry): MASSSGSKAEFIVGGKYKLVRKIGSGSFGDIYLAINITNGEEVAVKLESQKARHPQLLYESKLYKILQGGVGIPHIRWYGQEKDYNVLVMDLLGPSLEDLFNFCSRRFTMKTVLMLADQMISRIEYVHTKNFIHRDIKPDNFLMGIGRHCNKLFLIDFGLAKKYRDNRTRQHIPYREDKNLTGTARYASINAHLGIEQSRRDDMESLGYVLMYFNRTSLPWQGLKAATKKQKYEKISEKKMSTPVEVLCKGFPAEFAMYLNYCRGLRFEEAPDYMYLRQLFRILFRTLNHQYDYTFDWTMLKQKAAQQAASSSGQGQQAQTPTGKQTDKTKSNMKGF
T7 sequence (Q96SW2 whole entry): as the sequence (Q96SW2 whole entry) above
T7 sequence (Q16531 whole entry partner): as the sequence (Q16531 whole entry partner) above

CCRF-CEM = test: Tumor cell proliferation inhibition (CellTiter-Meiluncell Luminescent Cell Viability Assay), CCRF-CEM; conditions: Homo sapiens, 96 h, read-out: inhibitory activity (IC50, nM) against tumor cells proliferation, CCRF-CEM
Procedure: as §1
On the following day, the test compounds of the present disclosure were subjected to serial dilution. […] Subsequently, 0.5 µL of the test compound dilution was transferred into the 96-well plate containing the cells, with each well containing 100 µL of cell culture medium. […] Into the 96-well plate, the diluted test compounds and corresponding detection reagents were added, resulting in final test compound concentrations of 500 nM and 10 nM, respectively. The experimental procedure is described below using the diluted 2 µM test compound as an example.
as §2

TMD8 = test: Tumor cell proliferation inhibition (CellTiter-Meiluncell Luminescent Cell Viability Assay), TMD8; conditions: Homo sapiens, TMD8, 96 h, read-out: inhibitory activity (IC50, nM) against tumor cells proliferation, TMD8
MM.1R = test: Tumor cell proliferation inhibition (CellTiter-Meiluncell Luminescent Cell Viability Assay), MM.1R; conditions: Homo sapiens, 96 h, read-out: inhibitory activity (IC50, nM) against tumor cells proliferation, MM.1R
[2] = tested on: Human acute T lymphocytic leukemia cells (Molt-4); test: Tumor cell proliferation inhibition (CellTiter-Meiluncell Luminescent Cell Viability Assay), Molt-4; conditions: MOLT-4, 96 h, read-out: inhibitory activity (IC50, nM) against tumor cells proliferation, Molt 4
[3] = tested on: Human breast cancer cells (MDA-MB-231); test: Tumor cell proliferation inhibition (CellTiter-Meiluncell Luminescent Cell Viability Assay), MDA-MB-231; conditions: MDA-MB-231, 96 h, read-out: inhibitory activity (IC50, nM) against tumor cells proliferation, MDA-MB-231
NCI-H1975 = test: Tumor cell proliferation inhibition (CellTiter-Meiluncell Luminescent Cell Viability Assay), NCI-H1975; conditions: Homo sapiens, NCI-H1975, 96 h, read-out: inhibitory activity (IC50, nM) against tumor cells proliferation, H1975

T1 sequence (Q96SW2 whole entry): as the sequence (Q96SW2 whole entry) above

SMILES	IC50 [1] [µM]	Weel substrate protein remaining % (WEE1)	IC50 (Jurkat) [nM]	IKZF2 substrate protein remaining % (IKZF2)	IC50 (MGC803) [nM]	IKZF 1 substrate protein remaining % (IKZF1)	GSPT1 substrate protein remaining % (GSPT1)	IC50 (Vcap) [nM]	IKZF3 substrate protein remaining % (IKZF3)	IC50 (SW620) [nM]	IC50 (CAL-62) [nM]	CK1a substrate protein remaining % (CK1α)	IC50 (CCRF-CEM) [nM]	IC50 (TMD8) [nM]	IC50 (MM.1R) [nM]	IC50 [2] [nM]	IC50 [3] [nM]	IC50 (NCI-H1975) [nM]
O=C1CCC(N2Cc3cc(CN4CCN(c5cccc(Cl)c5Cl)CC4)ccc3C2=O)C(=O)N1 (stereo not drawn) [GT-04201, 3-(5-((4-(2,3-dichlorophenyl)piperazin-1-yl)methyl)-1-oxoisoindolin-2-yl)piperidine-2,6-dione]	1 to 1.5	A (0% ≤ substrate protein remaining % ≤ 80%)	1 to 5	A (0% ≤ substrate protein remaining % ≤ 80%)	10 to 50	B (80%< substrate protein remaining %≤ 100%)	A (0% ≤ substrate protein remaining % ≤ 80%)	5 to 10	B (80%< substrate protein remaining %≤ 100%)	50 to 100	1 to 5	A (0% ≤ substrate protein remaining % ≤ 80%)	1 to 5	10 to 50	–	–	–	–
O=C1CCC(N2Cc3cc(CN4CCN(c5cccc(C(F)(F)F)n5)CC4)ccc3C2=O)C(=O)N1 (stereo not drawn) [GT-04432, 3-(1-oxo-5-((4-(6-(trifluoromethyl)pyridin-2-yl)piperazin-1-yl)methyl)isoindolin-2-yl)piperidine-2,6-dione]	0.5 to 1	A (0% ≤ substrate protein remaining % ≤ 80%)	1 to 5	A (0% ≤ substrate protein remaining % ≤ 80%)	100 to 500	A (0% ≤ substrate protein remaining % ≤ 80%)	A (0% ≤ substrate protein remaining % ≤ 80%)	10 to 50	A (0% ≤ substrate protein remaining % ≤ 80%)	100 to 500	10 to 50	B (80%< substrate protein remaining %≤ 100%)	5 to 10	–	5 to 10	5 to 10	500 to 1000	100 to 500
Cc1ccc(Cl)cc1N1CCN(Cc2ccc3c(c2)CN(C2CCC(=O)NC2=O)C3=O)CC1 (stereo not drawn) [GT-04440, 3-(5-((4-(5-chloro-2-methylphenyl)piperazin-1-yl)methyl)-1-oxoisoindolin-2-yl)piperidine-2,6-dione]	0.5 to 1	A (0% ≤ substrate protein remaining % ≤ 80%)	10 to 50	A (0% ≤ substrate protein remaining % ≤ 80%)	500 to 1000	A (0% ≤ substrate protein remaining % ≤ 80%)	A (0% ≤ substrate protein remaining % ≤ 80%)	50 to 100	A (0% ≤ substrate protein remaining % ≤ 80%)	500 to 1000	10 to 50	A (0% ≤ substrate protein remaining % ≤ 80%)	10 to 50	–	10 to 50	5 to 10	500 to 1000	500 to 1000
COc1cccc(N2CCN(Cc3ccc4c(c3)CN(C3CCC(=O)NC3=O)C4=O)CC2)c1 (stereo not drawn) [GT-04448, 3-(5-((4-(3-methoxyphenyl)piperazin-1-yl)methyl)-1-oxoisoindolin-2-yl)piperidine-2,6-dione]	1 to 1.5	A (0% ≤ substrate protein remaining % ≤ 80%)	10 to 50	A (0% ≤ substrate protein remaining % ≤ 80%)	500 to 1000	A (0% ≤ substrate protein remaining % ≤ 80%)	A (0% ≤ substrate protein remaining % ≤ 80%)	50 to 100	A (0% ≤ substrate protein remaining % ≤ 80%)	100 to 500	10 to 50	A (0% ≤ substrate protein remaining % ≤ 80%)	10 to 50	–	10 to 50	10 to 50	500 to 1000	100 to 500
O=C1CCC(N2Cc3cc(CN4CCC(c5ccccc5)CC4)ccc3C2=O)C(=O)N1 (stereo not drawn) [GT-04465, 3-(1-oxo-5-((4-phenylpiperidin-1-yl)methyl)isoindolin-2-yl)piperidine-2,6-dione]	1 to 1.5	A (0% ≤ substrate protein remaining % ≤ 80%)	10 to 50	A (0% ≤ substrate protein remaining % ≤ 80%)	100 to 500	A (0% ≤ substrate protein remaining % ≤ 80%)	A (0% ≤ substrate protein remaining % ≤ 80%)	50 to 100	A (0% ≤ substrate protein remaining % ≤ 80%)	100 to 500	10 to 50	A (0% ≤ substrate protein remaining % ≤ 80%)	10 to 50	–	10 to 50	10 to 50	–	500 to 1000
O=C1CCC(N2Cc3cc(CN4CCC(c5ccc(Cl)cc5)CC4)ccc3C2=O)C(=O)N1 (stereo not drawn) [GT-04469, 3-(5-((4-(4-chlorophenyl)piperidin-1-yl)methyl)-1-oxoisoindolin-2-yl)piperidine-2,6-dione]	0.5 to 1	A (0% ≤ substrate protein remaining % ≤ 80%)	10 to 50	A (0% ≤ substrate protein remaining % ≤ 80%)	500 to 1000	A (0% ≤ substrate protein remaining % ≤ 80%)	A (0% ≤ substrate protein remaining % ≤ 80%)	50 to 100	A (0% ≤ substrate protein remaining % ≤ 80%)	500 to 1000	10 to 50	A (0% ≤ substrate protein remaining % ≤ 80%)	5 to 10	–	10 to 50	10 to 50	–	–
